Data: ChEMBL document CHEMBL1201862, “PubChem BioAssay data set” (2004)
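Five compound concentrations were applied to cells in 96-well plates for 48 hours; endpoints were derived by simple linear interpolation of the resulting dose-response curve. GI50 is the concentration that inhibits growth by half.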 Active and inactive are the calls of the source. Rule as the data show it: active = GI50 up to about 1.1 µM and inactive = higher.

Experiments:
Test in all cases: DTP human tumour cell line panel, 48 h
HT-29 = tested on: HT-29
EKVX = tested on: EKVX
SNB-75 = tested on: SNB-75
IGROV-1 = tested on: IGROV-1
SK-MEL-28 = tested on: SK-MEL-28
786-0 = tested on: 786-0
SF-295 = tested on: SF-295
T47D = tested on: T47D
KM12 = tested on: KM12
SF-268 = tested on: SF-268
DU-145 = tested on: DU-145
U-251 = tested on: U-251
SW-620 = tested on: SW-620
MDA-N = tested on: MDA-N
LOX IMVI = tested on: LOX IMVI
NCI-H23 = tested on: NCI-H23
MDA-MB-435 = tested on: MDA-MB-435
PC-3 = tested on: PC-3
NCI-H460 = tested on: NCI-H460
HCC 2998 = tested on: HCC 2998

| SMILES | GI50 (HT-29) | GI50 (EKVX) | GI50 (SNB-75) | GI50 (IGROV-1) | GI50 (SK-MEL-28) | GI50 (786-0) | GI50 (SF-295) | GI50 (T47D) | GI50 (KM12) | GI50 (SF-268) | GI50 (DU-145) | GI50 (U-251) | GI50 (SW-620) | GI50 (MDA-N) | GI50 (LOX IMVI) | GI50 (NCI-H23) | GI50 (MDA-MB-435) | GI50 (PC-3) | GI50 (NCI-H460) | GI50 (HCC 2998) |
| --- | --- | --- | --- | --- | --- | --- | --- | --- | --- | --- | --- | --- | --- | --- | --- | --- | --- | --- | --- | --- |
| NC1=C(N2CCCCC2)C(=O)NC2=N/C(=C\c3ccco3)C(=O)N21 | > 100 µM (inactive) | > 100 µM (inactive) | > 100 µM (inactive) | > 100 µM (inactive) | > 100 µM (inactive) | > 100 µM (inactive) | > 100 µM (inactive) | > 100 µM (inactive) | > 100 µM (inactive) | > 100 µM (inactive) | > 100 µM (inactive) | > 100 µM (inactive) | > 100 µM (inactive) | > 100 µM (inactive) | > 100 µM (inactive) | > 100 µM (inactive) | > 100 µM (inactive) | – | – | – |
| CC1(C)C[C@@H]2C1CCC1(C)CC2(O)CC[C@H]1O (some centres not stated) | > 100 µM (inactive) | > 100 µM (inactive) | > 100 µM (inactive) | > 100 µM (inactive) | > 100 µM (inactive) | > 100 µM (inactive) | > 100 µM (inactive) | > 100 µM (inactive) | > 100 µM (inactive) | > 100 µM (inactive) | – | > 100 µM (inactive) | > 100 µM (inactive) | – | > 100 µM (inactive) | > 100 µM (inactive) | > 100 µM (inactive) | > 100 µM (inactive) | > 100 µM (inactive) | – |
| Nc1nc(O)c2c(n1)NCN(c1ccc(S(N)(=O)=O)cc1)C2 | > 100 µM (inactive) | > 100 µM (inactive) | – | > 100 µM (inactive) | > 100 µM (inactive) | > 100 µM (inactive) | 85.9 µM (inactive) | > 100 µM (inactive) | > 100 µM (inactive) | > 100 µM (inactive) | > 100 µM (inactive) | > 100 µM (inactive) | > 100 µM (inactive) | > 100 µM (inactive) | > 100 µM (inactive) | – | > 100 µM (inactive) | > 100 µM (inactive) | > 100 µM (inactive) | – |
| C=C[C@@H]1C[C@]2(C(=O)OC)Cc3nc4ccccc4nc3CC(C(=O)OC)=C2O1 | > 100 µM (inactive) | > 100 µM (inactive) | – | 61.2 µM (inactive) | 53.8 µM (inactive) | > 100 µM (inactive) | 93.5 µM (inactive) | 85.5 µM (inactive) | 75.5 µM (inactive) | > 100 µM (inactive) | > 100 µM (inactive) | 92.7 µM (inactive) | 58.5 µM (inactive) | 46.8 µM (inactive) | 45.6 µM (inactive) | 69.8 µM (inactive) | 47.8 µM (inactive) | 62.4 µM (inactive) | > 100 µM (inactive) | – |
| CC1CCCN(CP(=O)(c2ccccc2)c2ccccc2)C1 (configuration not stated) | – | > 100 µM (inactive) | > 100 µM (inactive) | > 100 µM (inactive) | > 100 µM (inactive) | > 100 µM (inactive) | > 100 µM (inactive) | – | > 100 µM (inactive) | > 100 µM (inactive) | > 100 µM (inactive) | > 100 µM (inactive) | > 100 µM (inactive) | > 100 µM (inactive) | > 100 µM (inactive) | > 100 µM (inactive) | > 100 µM (inactive) | > 100 µM (inactive) | 92.5 µM (inactive) | 52.5 µM (inactive) |
| O=CNc1ncn[nH]1 | > 100 µM (inactive) | > 100 µM (inactive) | > 100 µM (inactive) | > 100 µM (inactive) | > 100 µM (inactive) | > 100 µM (inactive) | > 100 µM (inactive) | > 100 µM (inactive) | > 100 µM (inactive) | > 100 µM (inactive) | > 100 µM (inactive) | > 100 µM (inactive) | > 100 µM (inactive) | > 100 µM (inactive) | > 100 µM (inactive) | > 100 µM (inactive) | > 100 µM (inactive) | > 100 µM (inactive) | > 100 µM (inactive) | – |
| CCNC(=O)C1CCCN1C(=O)C(CCCN=C(N)N)NC(=O)C(CC(C)C)NC(=O)C(Cc1c[nH]c2ccccc12)NC(=O)C(Cc1ccc(O)cc1)NC(=O)C(CO)NC(=O)C(Cc1c[nH]c2ccccc12)NC(=O)C(Cc1c[nH]cn1)NC(=O)C1CCC(=O)N1 (configuration not stated) | > 100 µM (inactive) | > 100 µM (inactive) | > 100 µM (inactive) | > 100 µM (inactive) | – | > 100 µM (inactive) | > 100 µM (inactive) | – | > 100 µM (inactive) | > 100 µM (inactive) | > 100 µM (inactive) | > 100 µM (inactive) | > 100 µM (inactive) | > 100 µM (inactive) | – | > 100 µM (inactive) | > 100 µM (inactive) | > 100 µM (inactive) | > 100 µM (inactive) | > 100 µM (inactive) |
| O=C(CC(C(=O)c1ccsc1)c1ccccc1)c1ccccc1 (configuration not stated) | > 100 µM (inactive) | > 100 µM (inactive) | > 100 µM (inactive) | > 100 µM (inactive) | 7.28 µM (inactive) | > 100 µM (inactive) | 76.9 µM (inactive) | 20.2 µM (inactive) | 49.9 µM (inactive) | > 100 µM (inactive) | > 100 µM (inactive) | 95.9 µM (inactive) | > 100 µM (inactive) | > 100 µM (inactive) | > 100 µM (inactive) | 0.0217 µM (active) | 54.2 µM (inactive) | – | > 100 µM (inactive) | > 100 µM (inactive) |
